The values that follow are results of earlier work, collected in patent US20180346745A1, “WATER-BASED INK COMPOSITION FOR INK JET RECORDING AND COLORING MATERIAL LIQUID” (Seiko Epson Corporation, priority 2017, published 2018).

For the data set the following is noted: value defined by OECD Test Guideline 107.

Regarding `CCCCCCC(O)CO` (centres unmarked) [1,2-octane diol], the “log P (water-octanol partition coefficient)” value (“log P” for short) is given as 1.32.
As for `CCCCCOCC(O)CO` (centres unmarked) [3-pentyloxy-1,2-propanediol], the “log P” value is 0.83.
Consider `CCCCOCCOCCO` [butyl diglycol], for which the “log P” value is 0.56.
Regarding `CCCCOCC(C)O` (centres unmarked) [propylene glycol monobutyl ether], the “log P” value is 1.14.
Consider `CCCOCC(C)O` (centres unmarked) [propylene glycol monopropyl ether], for which the “log P” value is given as 0.61.
